Data on one molecule can be found in patent publication US20230084927A1, “GLUCOSE UPTAKE INHIBITORS AND USES THEREOF” (METABOMED LTD., priority 2019, published 2023).

Read-outs that look alike come from different tables or passages of the source. A value given as a limit tells only on which side of the number the result lay.

The test system of test [1] is SDH-WT cells. Kind of test: Cellular / differential toxicity assay (CellTiter-Glo, 3 days). The class given is cell-based, murine. To be noted: for EC50: Mus musculus, 72 h. The method in brief:
(§1)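 Isogenic SDHB-deficient (HRAS-transformed SDH-KO) and SDH-WT cells grown in DMEM-F12 with 1 mM glutamine and 3% FBS, plated with compound (10-point dilution from 10 uM to 0.0065 uM or lower) for 3 days at 37 °C, 5% CO2. Viability by CellTiter-Glo luminescence; EC50 calculated.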
(In general: In ATP-based viability assays light output follows the ATP content of the culture.)

The test system of test [2] is SDH-KO-HRAS cells (SDHB-deficient). The description is as above. The class given is cell-based, murine. The settings on record: for EC50: Mus musculus, 72 h. The method, boiled down: as §1

By EC50 is commonly meant the concentration that produces a half-maximal response. As for `CC1(C)Cc2nc3sc4c(NCCc5ccc6[nH]cnc6c5)ncnc4c3cc2CO1` [Compound 145], the entries for the “Ratio BAY-876/COMP 145” value in test [1] (Murine SDH-WT) and in test [2] (Murine SDH-KO) were 0.4 and 0.8, respectively. For the same molecule, the EC50 was 0.34 µM in test [1] (Murine SDH-WT, transformed, 72 hours, Example 8, read-out: EC50); 0.139 µM in test [1] (SDH-WT cells, 72 hours, Example 7, read-out: EC50 Tox); < 1 µM in test [1] (toxicity, SDH-WT cells, 3 days, CellTiter-Glo, read-out: EC50 (uM) SDH-WT); 0.0012 µM in test [2] (Murine SDH-KO, transformed, 72 hours, Example 8, read-out: EC50); 0.0018 µM in test [2] (SDH-KO cells, 72 hours, Example 7, read-out: EC50 Tox); < 1 µM in test [2] (toxicity, SDH-KO cells, 3 days, CellTiter-Glo, read-out: EC50 (uM) SDH-KO-HTAS-C17). Further, in test [2] (cell viability, Example 7), the “differential effect between SDH-WT and KO cells (EC50 Tox)” value is recorded as “around 80 folds”.
